Reference: patent US10493060B2, “Spirocyclic compounds” (ZENO ROYALTIES & MILESTONES, LLC, priority 2015, dated 2019)
pIC50: −log10 of the molar value.

How the values were obtained:
[1] = test system: A375 (melanoma) cells; assay: Proliferation assay (CellTiter-Glo), A375; type: cell-based; conditions: Homo sapiens, A-375, 72 h, 3 days
Method: A375 (melanoma), Colo-205 (colon cancer), Miapaca (pancreatic), HPAFII (pancreatic), sNF02.0 (neurofibromatosis type 1), sNF96.2 (neurofibromatosis type 1) and 8505 (Thyroid) cells were grown and maintained in RPMI-1640 medium containing 100 U/mL penicillin-streptomycin and 10% fetal bovine serum. Cells were in growth medium in 96-well opaque-walled clear bottom plates and incubated the in the CO2 incubator overnight before treatment. Cells were treated with compounds diluted in DMSO and a 10 point 3-fold serial dilutions were done. Plates were placed in 37° C., 5% CO2 for to incubate for 3 days. Before they were developed by adding 100 μL of CellTiter-Glo reagent (Promega) to the assay plate, plates were shaken briefly for 2 mins and allowed to incubate at rt for 10 mins. The bottom of the plates was pasted with white back seal and luminescence was recorded with Flexstation3 with setting of luminescence, integration time 500 ms.

[2] = target: Activated ERK2 (Homo sapiens (Human), UniProt P28482); assay: Active ERK2 kinase assay (Mobility Shift Assay); type: biochemical
Sequence of Activated ERK2 (P28482 whole entry): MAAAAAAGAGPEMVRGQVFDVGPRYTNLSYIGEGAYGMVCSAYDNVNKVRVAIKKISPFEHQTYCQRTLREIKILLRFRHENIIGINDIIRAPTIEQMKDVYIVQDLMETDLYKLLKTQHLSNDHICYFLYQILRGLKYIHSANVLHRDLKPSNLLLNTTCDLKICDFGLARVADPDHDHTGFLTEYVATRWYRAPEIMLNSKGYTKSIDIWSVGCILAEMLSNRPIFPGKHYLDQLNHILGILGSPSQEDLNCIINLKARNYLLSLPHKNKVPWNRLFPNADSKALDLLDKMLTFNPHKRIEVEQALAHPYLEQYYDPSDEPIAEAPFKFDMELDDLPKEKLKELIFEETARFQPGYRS
Method: (§1) Activated ERK1 and ERK2 activity was determined in a Mobility Shift Assay (MSA) format as follows: Compound and kinase solution were prepared with assay buffer (20 mM HEPES, 0.01% Triton X-100, 2 mM DTT, pH7.5) and mixed and incubated in for 30 mins at rt. ERK1 & ERK2 were then activated by the addition of Fl-Substrate, ATP and metal solution and incubated for 1 h at rt. After 1 h, the reaction was terminated by the addition of […] of Termination Buffer (QuickScout Screening Assist MSA; Carna Biosciences) to the well. The reaction mixture was applied to LabChip™ system (PerkinElmer), and the product and substrate peptide peaks were separated, analyzed and quantitated. The kinase reaction is evaluated by the product ratio calculated from peak heights of product (P) and substrate (S) peptides (P/(P+S)).

[3] = target: Activated ERK1 (Homo sapiens (Human), UniProt P27361); assay: Active ERK1 kinase assay (Mobility Shift Assay); type: biochemical
Sequence of Activated ERK1 (P27361 whole entry): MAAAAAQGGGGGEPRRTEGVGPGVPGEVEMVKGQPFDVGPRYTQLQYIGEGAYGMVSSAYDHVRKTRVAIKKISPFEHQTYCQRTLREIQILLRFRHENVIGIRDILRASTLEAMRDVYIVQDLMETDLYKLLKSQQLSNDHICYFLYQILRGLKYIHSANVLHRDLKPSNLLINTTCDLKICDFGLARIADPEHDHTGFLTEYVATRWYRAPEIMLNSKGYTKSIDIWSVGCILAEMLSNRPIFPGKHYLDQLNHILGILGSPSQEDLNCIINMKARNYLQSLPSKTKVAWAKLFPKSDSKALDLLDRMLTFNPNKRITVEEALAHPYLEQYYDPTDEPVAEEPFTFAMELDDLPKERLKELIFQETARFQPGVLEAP
Method: as §1

| SMILES | pIC50 [1] | pIC50 [2] | pIC50 [3] |
| --- | --- | --- | --- |
| CC(C)Oc1ccc(-c2n[nH]c3ccc(N4CC[C@]5(CCN(CC(=O)N6CC=C(c7ccc(-c8cn(C)cn8)cc7)CC6)C5)C4=O)cc23)cn1 [Example 26, (S)-2-(3-(6-Isopropoxypyridin-3-yl)-1H-indazol-5-yl)-7-(2-(4-(4-(1-methyl-1H-imidazol-4-yl)phenyl)-3,6-dihydropyridin-1(2H)-yl)-2-oxoethyl)-2,7-diazaspiro[4.4]nonan-1-one] | ≥ 6.30 | ≥ 7.30 |  |
| Cc1noc(-c2ccc(C3=CCN(C(=O)CN4CC[C@]5(CCN(c6ccc7[nH]nc(-c8ccnc(C(F)(F)F)c8)c7c6)C5=O)C4)CC3)cc2)n1 [Example 43, (S)-7-(2-(4-(4-(3-methyl-1,2,4-oxadiazol-5-yl)phenyl)-3,6-dihydropyridin-1(2H)-yl)-2-oxoethyl)-2-(3-(2-(trifluoromethyl)pyridin-4-yl)-1H-indazol-5-yl)-2,7-diazaspiro[4.4]nonan-1-one] | ≤ 6.00 | ≥ 7.30 |  |
| Cn1cnc(-c2ccc(C3=CCN(C(=O)CN4CC[C@]5(CCN(c6ccc7[nH]ncc7c6)C5=O)C4)CC3)cc2)n1 [Example 36, (S)-2-(1H-indazol-5-yl)-7-(2-(4-(4-(1-methyl-1H-1,2,4-triazol-3-yl)phenyl)-3,6-dihydropyridin-1(2H)-yl)-2-oxoethyl)-2,7-diazaspiro[4.4]nonan-1-one] | ≤ 6.00 | 6.60 to 7.30 |  |
| Cn1cnc(-c2ccc(C3=CCN(C(=O)CN4CC[C@]5(CCN(c6ccc7[nH]nc(N8CCOCC8)c7c6)C5=O)C4)CC3)cc2)n1 [Example 33, (S)-7-(2-(4-(4-(1-Methyl-1H-1,2,4-triazol-3-yl)phenyl)-3,6-dihydropyridin-1 (2H)-yl)-2-oxoethyl)-2-(3-morpholino-1H-indazol-5-yl)-2,7-diazaspiro[4.4]nonan-1-one] | ≥ 6.30 | ≥ 7.30 |  |
| Cn1cnc(-c2ccc(C3=CCN(C(=O)CN4CC[C@]5(CCN(c6ccc7[nH]nc(-c8cnccc8C(F)(F)F)c7c6)C5=O)C4)CC3)cc2)n1 [Example 34, (S)-7-(2-(4-(4-(1-Methyl-1H-1,2,4-triazol-3-yl)phenyl)-3,6-dihydropyridin-1(2H)-yl)-2-oxoethyl)-2-(3-(4-(trifluoromethyl)pyridin-3-yl)-1H-indazol-5-yl)-2,7-diazaspiro[4.4]nonan-1-one] | ≤ 6.00 | ≤ 6.60 |  |
| Cn1cnc(-c2ccc(C3=CCN(C(=O)CN4CC[C@]5(CCN(c6ccc7[nH]nc(-c8ccnc(C(F)F)c8)c7c6)C5=O)C4)CC3)cc2)n1 [Example 40, (S)-2-(3-(2-(Difluoromethyl)pyridin-4-yl)-1H-indazol-5-yl)-7-(2-(4-(4-(1-methyl-1H-1,2,4-triazol-3-yl)phenyl)-3,6-dihydropyridin-1(2H)-yl)-2-oxoethyl)-2,7-diazaspiro[4.4]nonan-1-one] | ≥ 6.30 | ≥ 7.30 |  |
| CCNc1nnc(-c2ccc(C3=CCN(C(=O)CN4CC[C@]5(CCN(c6ccc7[nH]nc(-c8ccc(OC(C)C)nc8)c7c6)C5=O)C4)CC3)cc2)s1 [Example 19, (S)-7-(2-(4-(4-(5-(Ethylamino)-1,3,4-thiadiazol-2-yl)phenyl)-3,6-dihydropyridin-1(2H)-yl)-2-oxoethyl)-2-(3-(6-isopropoxypyridin-3-yl)-1H-indazol-5-yl)-2,7-diazaspiro[4.4]nonan-1-one] |  | ≥ 7.30 | ≥ 7.30 |
| CC(C)Oc1ccc(-c2n[nH]c3ccc(N4CC[C@]5(CCN(CC(=O)N6CCN(c7ccc(-c8ncn(C)n8)cc7)CC6)C5)C4=O)cc23)cn1 [Example 32, (S)-2-(3-(6-Isopropoxypyridin-3-yl)-1H-indazol-5-yl)-7-(2-(4-(4-(1-methyl-1H-1,2,4-triazol-3-yl)phenyl)piperazin-1-yl)-2-oxoethyl)-2,7-diazaspiro[4.4]nonan-1-one] | ≥ 6.30 | ≥ 7.30 |  |
| Cc1cc(-c2n[nH]c3ccc(N4CCC5(CCN(CC(=O)N6CC=C(c7ccc(-c8ncn(C)n8)cc7)CC6)C5)C4=O)cc23)ccn1 (stereo not shown) [Example 6, 7-(2-(4-(4-(1-Methyl-1H-1,2,4-triazol-3-yl)phenyl)-3,6-dihydropyridin-1(2H)-yl)-2-oxoethyl)-2-(3-(2-methylpyridin-4-yl)-1H-indazol-5-yl)-2,7-diazaspiro[4.4]nonan-1-one] |  | ≥ 7.30 | ≥ 7.30 |
| CC(C)Oc1ccc(-c2n[nH]c3ccc(N4CCC5(CCN(CC(=O)N6CC=C(c7ccc(-c8ncn(C)n8)cc7)CC6)C5)C4=O)cc23)cn1 (stereo not shown) [Example 1, 2-(3-(6-Isopropoxypyridin-3-yl)-1H-indazol-5-yl)-7-(2-(4-(4-(1-methyl-1H-1,2,4-triazol-3-yl)phenyl)-3,6-dihydropyridin-1(2H)-yl)-2-oxoethyl)-2,7-diazaspiro[4.4]nonan-1-one] |  | ≥ 7.30 | ≥ 7.30 |
| Cc1cc(-c2n[nH]c3ccc(N4CC[C@@]5(CCN(CC(=O)N6CC=C(c7ccc(-c8ncn(C)n8)cc7)CC6)C5)C4=O)cc23)ccn1 [Example 9, (R)-7-(2-(4-(4-(1-Methyl-1H-1,2,4-triazol-3-yl)phenyl)-3,6-dihydropyridin-1(2H)-yl)-2-oxoethyl)-2-(3-(2-methylpyridin-4-yl)-1H-indazol-5-yl)-2,7-diazaspiro[4.4]nonan-1-one] |  | ≥ 7.30 | 6.60 to 7.30 |
| CC(C)Oc1ccc(-c2n[nH]c3ccc(N4CCC5(CN(CC(=O)N6CC=C(c7ccc(-c8ncn(C)n8)cc7)CC6)C5)C4=O)cc23)cn1 [Example 13, 6-(3-(6-Isopropoxypyridin-3-yl)-1H-indazol-5-yl)-2-(2-(4-(4-(1-methyl-1H-1,2,4-triazol-3-yl)phenyl)-3,6-dihydropyridin-1(2H)-yl)-2-oxoethyl)-2,6-diazaspiro[3.4]octan-5-one] |  | 6.60 to 7.30 | 6.60 to 7.30 |

Second part, the compound after the results:

| pIC50 [1] | pIC50 [2] | pIC50 [3] | SMILES |
| --- | --- | --- | --- |
| ≥ 6.30 | ≥ 7.30 |  | Cn1cnc(-c2ccc(C3=CCN(C(=O)CN4CC[C@]5(CCN(c6ccc7[nH]nc(-c8ccnc(C(C)(F)F)c8)c7c6)C5=O)C4)CC3)cc2)n1 [Example 39, (S)-2-(3-(2-(1,1-difluoroethyl)pyridin-4-yl)-1H-indazol-5-yl)-7-(2-(4-(4-(1-methyl-1H-1,2,4-triazol-3-yl)phenyl)-3,6-dihydropyridin-1(2H)-yl)-2-oxoethyl)-2,7-diazaspiro[4.4]nonan-1-one] |
| ≤ 6.00 | ≥ 7.30 | 6.60 to 7.30 | CC(C)Oc1ccc(-c2n[nH]c3ccc(N4CC[C@]5(CCN(CC(=O)N6CCC(C78CC(c9ncn(C)n9)(C7)C8)CC6)C5)C4=O)cc23)cn1 [Example 24, (S)-2-(3-(6-Isopropoxypyridin-3-yl)-1H-indazol-5-yl)-7-(2-(4-(3-(1-methyl-1H-1,2,4-triazol-3-yl)bicyclo[1.1.1]pentan-1-yl)piperidin-1-yl)-2-oxoethyl)-2,7-diazaspiro[4.4]nonan-1-one] |
| ≥ 6.30 | ≥ 7.30 |  | Cn1cc(-c2ccc(C3=CCN(C(=O)CN4CC[C@]5(CCN(c6ccc7[nH]nc(-c8ccnc(C(F)(F)F)c8)c7c6)C5=O)C4)CC3)cc2)nn1 [Example 41, (S)-7-(2-(4-(4-(1-methyl-1H-1,2,3-triazol-4-yl)phenyl)-3,6-dihydropyridin-1 (2H)-yl)-2-oxoethyl)-2-(3-(2-(trifluoromethyl)pyridin-4-yl)-1H-indazol-5-yl)-2,7-diazaspiro[4.4]nonan-1-one] |
| ≥ 6.30 | ≥ 7.30 |  | Cc1nnc(-c2ccc(C3=CCN(C(=O)CN4CC[C@]5(CCN(c6ccc7[nH]nc(-c8ccnc(C(F)(F)F)c8)c7c6)C5=O)C4)CC3)cc2)o1 [Example 42, (S)-7-(2-(4-(4-(5-Methyl-1,3,4-oxadiazol-2-yl)phenyl)-3,6-dihydropyridin-1 (2H)-yl)-2-oxoethyl)-2-(3-(2-(trifluoromethyl)pyridin-4-yl)-1H-indazol-5-yl)-2,7-diazaspiro[4.4]nonan-1-one] |
|  | ≥ 7.30 | ≥ 7.30 | CC(C)Oc1ccc(-c2n[nH]c3ccc(N4CC[C@]5(CCN(CC(=O)N6CC=C(c7ccc(-n8ccnn8)cc7)CC6)C5)C4=O)cc23)cn1 [Example 14, (S)-7-(2-(4-(4-(1H-1,2,3-Triazol-1-yl)phenyl)-3,6-dihydropyridin-1(2H)-yl)-2-oxoethyl)-2-(3-(6-isopropoxypyridin-3-yl)-1H-indazol-5-yl)-2,7-diazaspiro[4.4]nonan-1-one] |
|  | ≤ 6.60 | ≤ 6.60 | CC(C)Oc1ccc(-c2n[nH]c3ccc(N4CC[C@@]5(CCN(CC(=O)N6CC=C(c7ccc(-c8ncn(C)n8)cc7)CC6)C5)C4=O)cc23)cn1 [Example 11, (R)-2-(3-(6-Isopropoxypyridin-3-yl)-1H-indazol-5-yl)-7-(2-(4-(4-(1-methyl-1H-1,2,4-triazol-3-yl)phenyl)-3,6-dihydropyridin-1 (2H)-yl)-2-oxoethyl)-2,7-diazaspiro[4.4]nonan-1-one] |
